Results reported in ChEMBL document CHEMBL1146674, “Effective irreversible alkylating reagents based on the structure of clavulones” (Bioorg Med Chem Lett, 2004).

tested on: HeLa; test: Cytotoxicity in HeLa S3 cells (human uterocervical carcinoma) was determined; assay type: functional, cell-based; conditions: Homo sapiens, HeLa; read-out: IC50

SMILES	IC50
CC(=O)OC1(CC#Cc2ccccc2)C=CC(=O)C1=Cc1ccccc1 (stereo unspecified)	0.024 µM
O=C1CC(SCCO)C(O)(CC#Cc2ccccc2)/C1=C/c1ccccc1 (stereo unspecified)	0.021 µM
O=C1C=CC(O)(CC#Cc2ccccc2)/C1=C/c1ccccc1 (stereo unspecified)	0.015 µM
O=C1C=CC(CC#Cc2ccccc2)(OC2CCCCO2)/C1=C/c1ccccc1 (stereo unspecified)	1.1 µM

same assay, conditions: hela

SMILES	IC50
O=C1CC(SCCO)/C(=C\C#Cc2ccccc2)C1C(SCCO)c1ccccc1 (stereo unspecified)	> 1000 µM
O=C1CC(SCCO)/C(=C/C#Cc2ccccc2)C1C(SCCO)c1ccccc1 (stereo unspecified)	> 1000 µM
